Columns and labels:
Type in all cases: in vivo
Sunflower = assay: Test C preemergence; conditions: Rate 500 g/ha, visual evaluation after 12 to 14 days
[1] = system: duck salad (Heteranthera limosa); assay: Test C flooded paddy test; conditions: for Ducksalad plant response rating: Flooded Paddy, scale 0 to 100, 0 no effect, 100 complete control; for Plant response rating, Ducksalad: flooded paddy test, scale 0 to 100 (0 no effect, 100 complete control)
Method in brief: (§1)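 Flooded paddy, 2-leaf stage at treatment. Readout: visual % control vs untreated, 0–100, at 12–14 d in greenhouse.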

[2] = system: smallflower flatsedge (Cyperus difformis); assay: Test C flooded paddy test; conditions: for Flatsedge plant response rating: Flooded Paddy, scale 0 to 100, 0 no effect, 100 complete control; for Plant response rating, Flatsedge: flooded paddy test, scale 0 to 100 (0 no effect, 100 complete control)
Method in brief: as §1

[3] = system: barnyardgrass (Echinochloa crus-galli); assay: Test C flooded paddy test; conditions: for Barnyardgrass plant response rating: Flooded Paddy, scale 0 to 100, 0 no effect, 100 complete control; for Plant response rating, Barnyardgrass: flooded paddy test, scale 0 to 100 (0 no effect, 100 complete control)
Method in brief: as §1

corn (Zea mays) = assay: Test C preemergence; conditions: for Plant response rating, Corn: scale 0 to 100, 0 no effect, 100 complete control; for Plant response rating (0 to 100), Corn: visual evaluation after 12 to 14 days
Description: (§2) Seeds of plant species selected from bermudagrass (Cynodon dactylon), Surinam grass (Brachiaria decumbens), cocklebur (Xanthium strumarium), corn (Zea mays), crabgrass (Digitaria sanguinalis), woolly cupgrass (Eriochloa villosa), giant foxtail (Setaria faberii), goosegrass (Eleusine indica), johnsongrass (Sorghum halepense), kochia (Kochia scoparia), lambsquarters (Chenopodium album), morningglory (Ipomoea hederacea), yellow nutsedge (Cyperus esculentus), pigweed (Amaranthus retroflexus), common ragweed (Ambrosia elatior), soybean (Glycine max) and velvetleaf (Abutilon theophrasti) were planted and treated preemergence with test chemicals formulated in a non-phytotoxic solvent mixture which included a surfactant.
(§3) At the same time, plants selected from these crop and weed species and also winter barley (Hordeum vulgare), blackgrass (Alopecurus myosuroides), canary grass (Phalaris minor), chickweed (Stellaria media), downy brome (Bromus tectorum), green foxtail (Setaria viridis), Italian ryegrass (Lolium multiflorum), wheat (Triticum aestivum), wild oat (Avena fatua) and windgrass (Apera spica-venti) were treated with postemergence applications of some of the test chemicals formulated in the same manner. Plants ranged in height from 2 to 18 cm (1- to 4-leaf stage) for postemergence treatments. Plant species in the flooded paddy test consisted of rice (Oryza saliva), smallflower flatsedge (Cyperus difformis), duck salad (Heteranthera limosa) and barnyardgrass (Echinochloa crus-galli) grown to the 2-leaf stage for testing. Treated plants and controls were maintained in a greenhouse for 12 to 14 days, after which time all species were compared to controls and visually evaluated. Plant response ratings, summarized in Table C, are based on a scale of 0 to 100 where 0 is no effect and 100 is complete control. A dash (-) response means no test result.

[4] = system: woolly cupgrass (Eriochloa villosa); assay: Test C preemergence; conditions: for Plant response rating, Cupgrass, Woolly: scale 0 to 100, 0 no effect, 100 complete control; for Plant response rating (0 to 100), Cupgrass, Woolly: visual evaluation after 12 to 14 days
Description: as §2, §3

[5] = system: cocklebur (Xanthium strumarium); assay: Test C preemergence; conditions: for Plant response rating, Cocklebur: scale 0 to 100, 0 no effect, 100 complete control; for Plant response rating (0 to 100), Cocklebur: visual evaluation after 12 to 14 days
Description: as §2, §3

Nightshade = assay: Test C preemergence; conditions: scale 0 to 100, 0 no effect, 100 complete control
Description: as §2, §3

kochia (Kochia scoparia) = assay: Test C preemergence; conditions: for Plant response rating, Kochia: scale 0 to 100, 0 no effect, 100 complete control; for Plant response rating (0 to 100), Kochia: visual evaluation after 12 to 14 days
Description: as §2, §3

[6] = system: Surinam grass (Brachiaria decumbens); assay: Test C preemergence; conditions: for Plant response rating, Surinam grass: scale 0 to 100, 0 no effect, 100 complete control; for Plant response rating (0 to 100), Surinam grass: visual evaluation after 12 to 14 days
Description: as §2, §3

[7] = system: goosegrass (Eleusine indica); assay: Test C preemergence; conditions: for Plant response rating, Goosegrass: scale 0 to 100, 0 no effect, 100 complete control; for Plant response rating (0 to 100), Goosegrass: visual evaluation after 12 to 14 days
Description: as §2, §3

[8] = system: giant foxtail (Setaria faberii); assay: Test C preemergence; conditions: for Plant response rating, Foxtail, Giant: scale 0 to 100, 0 no effect, 100 complete control; for Plant response rating (0 to 100), Foxtail, Giant: visual evaluation after 12 to 14 days
Description: as §2, §3

soybean (Glycine max) = assay: Test C preemergence; conditions: preemergence; for Plant response rating, Soybean: scale 0 to 100, 0 no effect, 100 complete control
Description: as §2, §3

[9] = system: velvetleaf (Abutilon theophrasti); assay: Test C preemergence; conditions: preemergence; for Plant response rating, Velvetleaf: scale 0 to 100, 0 no effect, 100 complete control
Description: as §2, §3

[10] = system: crabgrass (Digitaria sanguinalis); assay: Test C preemergence; conditions: for Plant response rating, Crabgrass: scale 0 to 100, 0 no effect, 100 complete control; for Plant response rating (0 to 100), Crabgrass: visual evaluation after 12 to 14 days
Description: as §2, §3

[11] = system: pigweed (Amaranthus retroflexus); assay: Test C preemergence; conditions: preemergence; for Plant response rating, Pigweed: scale 0 to 100, 0 no effect, 100 complete control
Description: as §2, §3

[12] = system: bermudagrass (Cynodon dactylon); assay: Test C preemergence; conditions: for Plant response rating, Bermudagrass: scale 0 to 100, 0 no effect, 100 complete control; for Plant response rating (0 to 100 where 0 is no effect and 100 is complete control), Bermudagrass: visual evaluation after 12 to 14 days
Description: as §2, §3

[13] = system: johnsongrass (Sorghum halepense); assay: Test C preemergence; conditions: for Plant response rating, Johnsongrass: scale 0 to 100, 0 no effect, 100 complete control; for Plant response rating (0 to 100), Johnsongrass: visual evaluation after 12 to 14 days
Description: as §2, §3

[14] = system: yellow nutsedge (Cyperus esculentus); assay: Test C preemergence; conditions: for Plant response rating, Nutsedge: scale 0 to 100, 0 no effect, 100 complete control
Description: as §2, §3

[15] = system: morningglory (Ipomoea hederacea); assay: Test C preemergence; conditions: for Plant response rating, Morningglory: scale 0 to 100, 0 no effect, 100 complete control
Description: as §2, §3

[16] = Rate 500 g/ha, visual evaluation after 12 to 14 days
[17] = preemergence, Rate 500 g/ha, visual evaluation after 12 to 14 days

CC1(c2ccn(C3SCN(c4cccc(C(F)(F)F)c4)C3=O)n2)CC1 (stereo not shown) [Compound 64] was tested, and the “Plant response rating (0 to 100), Sunflower” value (Sunflower) was 60, the “Ducksalad plant response rating” value ([1]; Rate 250 g/ha) was 90 and the “Ducksalad plant response rating” value ([1]; Rate 500 g/ha) was 90. For the same compound, the “Plant response rating, Ducksalad” value ([1]; Rate 62 g/ha) was 0, the “Plant response rating, Ducksalad” value ([1]; Rate 125 g/ha) was 30 and the “Flatsedge plant response rating” value ([2]; Rate 250 g/ha) was 100. The “Flatsedge plant response rating” value ([2]; Rate 500 g/ha) was 100, the “Plant response rating, Flatsedge” value ([2]; Rate 62 g/ha) was 100 and the “Plant response rating, Flatsedge” value ([2]; Rate 125 g/ha) was 100. For the same compound, the “Barnyardgrass plant response rating” value ([3]; Rate 250 g/ha) was 80, the “Barnyardgrass plant response rating” value ([3]; Rate 500 g/ha) was 100 and the “Plant response rating, Barnyardgrass” value ([3]; Rate 62 g/ha) was 20. The “Plant response rating, Barnyardgrass” value ([3]; Rate 125 g/ha) was 80, the “Plant response rating, Corn” value (corn (Zea mays); Rate 62 g/ha) was 0 and the “Plant response rating (0 to 100), Corn” value (corn (Zea mays); preemergence, Rate 250 g/ha) was 30. The “Plant response rating (0 to 100), Corn” value (corn (Zea mays); preemergence, Rate 500 g/ha) was 40, the “Plant response rating, Corn” value (corn (Zea mays); preemergence, Rate 125 g/ha) was 0 and the “Plant response rating, Cupgrass, Woolly” value ([4]; Rate 62 g/ha) was 30. For the same compound, the “Plant response rating (0 to 100), Cupgrass, Woolly” value ([4]; preemergence, Rate 250 g/ha) was 90, the “Plant response rating (0 to 100), Cupgrass, Woolly” value ([4]; preemergence, Rate 500 g/ha) was 100 and the “Plant response rating, Cupgrass, Woolly” value ([4]; preemergence, Rate 125 g/ha) was 50. The “Plant response rating, Cocklebur” value ([5]; Rate 62 g/ha) was 0, the “Plant response rating (0 to 100), Cocklebur” value ([5]; preemergence, Rate 250 g/ha) was 20 and the “Plant response rating (0 to 100), Cocklebur” value ([5]; preemergence, Rate 500 g/ha) was 30. For the same compound, the “Plant response rating, Cocklebur” value ([5]; preemergence, Rate 125 g/ha) was 0, the “Plant response rating, Nightshade” value (Nightshade; Rate 62 g/ha) was 30 and the “Plant response rating, Nightshade” value (Nightshade; Rate 125 g/ha) was 70. For the same compound, the “Plant response rating, Nightshade” value (Nightshade; Rate 250 g/ha) was 90, the “Plant response rating, Kochia” value (kochia (Kochia scoparia); Rate 62 g/ha) was 90 and the “Plant response rating (0 to 100), Kochia” value (kochia (Kochia scoparia); preemergence, Rate 250 g/ha) was 100. For the same compound, the “Plant response rating (0 to 100), Kochia” value (kochia (Kochia scoparia); preemergence, Rate 500 g/ha) was 100, the “Plant response rating, Kochia” value (kochia (Kochia scoparia); preemergence, Rate 125 g/ha) was 100 and the “Plant response rating, Surinam grass” value ([6]; Rate 62 g/ha) was 0. The “Plant response rating (0 to 100), Surinam grass” value ([6]; preemergence, Rate 250 g/ha) was 90, the “Plant response rating (0 to 100), Surinam grass” value ([6]; preemergence, Rate 500 g/ha) was 100 and the “Plant response rating, Surinam grass” value ([6]; preemergence, Rate 125 g/ha) was 50. The “Plant response rating, Goosegrass” value ([7]; Rate 62 g/ha) was 100, the “Plant response rating (0 to 100), Goosegrass” value ([7]; preemergence, Rate 250 g/ha) was 100 and the “Plant response rating (0 to 100), Goosegrass” value ([7]; preemergence, Rate 500 g/ha) was 100. The “Plant response rating, Goosegrass” value ([7]; preemergence, Rate 125 g/ha) was 100, the “Plant response rating, Foxtail, Giant” value ([8]; Rate 62 g/ha) was 0 and the “Plant response rating (0 to 100), Foxtail, Giant” value ([8]; preemergence, Rate 250 g/ha) was 100. For the same compound, the “Plant response rating (0 to 100), Foxtail, Giant” value ([8]; preemergence, Rate 500 g/ha) was 30, the “Plant response rating, Foxtail, Giant” value ([8]; preemergence, Rate 125 g/ha) was 50 and the “Plant response rating (0 to 100), Soybean” value (soybean (Glycine max); [16]) was 30. For the same compound, the “Plant response rating, Soybean” value (soybean (Glycine max); Rate 125 g/ha) was 20, the “Plant response rating, Soybean” value (soybean (Glycine max); Rate 250 g/ha) was 20 and the “Plant response rating (0 to 100), Velvetleaf” value [9, 16] was 50. For the same compound, the “Plant response rating, Velvetleaf” value ([9]; Rate 125 g/ha) was 0, the “Plant response rating, Velvetleaf” value ([9]; Rate 250 g/ha) was 20 and the “Plant response rating, Crabgrass” value ([10]; Rate 62 g/ha) was 100. The “Plant response rating (0 to 100), Crabgrass” value ([10]; preemergence, Rate 250 g/ha) was 100, the “Plant response rating (0 to 100), Crabgrass” value ([10]; preemergence, Rate 500 g/ha) was 100 and the “Plant response rating, Crabgrass” value ([10]; preemergence, Rate 125 g/ha) was 100. For the same compound, the “Plant response rating (0 to 100), Pigweed” value [11, 16] was 100, the “Plant response rating, Pigweed” value ([11]; Rate 125 g/ha) was 100 and the “Plant response rating, Pigweed” value ([11]; Rate 250 g/ha) was 100. For the same compound, the “Plant response rating, Bermudagrass” value ([12]; Rate 62 g/ha) was 100, the “Plant response rating (0 to 100 where 0 is no effect and 100 is complete control), Bermudagrass” value ([12]; preemergence, Rate 250 g/ha) was 100 and the “Plant response rating (0 to 100 where 0 is no effect and 100 is complete control), Bermudagrass” value ([12]; preemergence, Rate 500 g/ha) was 100. For the same compound, the “Plant response rating, Bermudagrass” value ([12]; preemergence, Rate 125 g/ha) was 100, the “Plant response rating, Johnsongrass” value ([13]; Rate 62 g/ha) was 30 and the “Plant response rating (0 to 100), Johnsongrass” value ([13]; preemergence, Rate 250 g/ha) was 90. For the same compound, the “Plant response rating (0 to 100), Johnsongrass” value ([13]; preemergence, Rate 500 g/ha) was 100, the “Plant response rating, Johnsongrass” value ([13]; preemergence, Rate 125 g/ha) was 70 and the “Plant response rating, Nutsedge” value ([14]; Rate 62 g/ha) was 0. For the same compound, the “Plant response rating (0 to 100), Nutsedge” value [14, 17] was 50, the “Plant response rating, Nutsedge” value ([14]; preemergence, Rate 125 g/ha) was 0 and the “Plant response rating, Nutsedge” value ([14]; preemergence, Rate 250 g/ha) was 50. The “Plant response rating, Morningglory” value ([15]; Rate 62 g/ha) was 40, the “Plant response rating (0 to 100), Morningglory” value [15, 17] was 60 and the “Plant response rating, Morningglory” value ([15]; preemergence, Rate 125 g/ha) was 40. The “Plant response rating, Morningglory” value ([15]; preemergence, Rate 250 g/ha) was 40.

From patent publication US7138361B2, “Herbicidal heterocycles” (E. I. du Pont de Nemours and Company, priority 2000, dated 2006)
